Marks after values point to notes of the source that are not given here.
Experiments:
Format in all cases: in vivo, rat
[1] = test system: blank cotton pellet granuloma; experiment: Blank cotton pellet granuloma assay (intravenous administration); conditions: 3 days
Description: A further test was undertaken to determine the thymolytic activity of a representative species of the invention as compared to betamethasone 17-valerate. In this test, the drugs were administered intravenously to rats, while using a blank cotton pellet granuloma assay. Male Sprague-Dawley rats, each weighing about 185 grams (166-196 grams), were used. Two cotton pellets, each weighing 30 mg and containing no test compounds, were sterilized and implanted sub-cutaneously into the back of each test animal. This day was considered day 0 of implantation. Test compounds suspended in 0.8% polysorbate 80 were administered intravenously once daily for 3 consecutive days beginning with day 1. On day 5, the animals were sacrificed and the two pellets, with their respective granulomas, were removed, dried overnight in an oven at 50° C. and weighed (dry granuloma weight). The thymi and final body weights were also recorded.
In the foregoing tests, there was determined the deactivation of the representative species of the present soft steroids administered intravenously to rats. […] The test compounds were administered intravenously to rats to check the test compounds also for systemic anti-inflammatory activity as compared to betamethasone 17-valerate. The test compounds were found lower in the inhibition of granulation tissue formation and also in the thymus involution activity than betamethasone 17-valerate. From the results of the tests, it is presumed that the compounds which will not be readily subjected to metabolism (deactivation) have a systemic anti-inflammatory activity, as is the case with betamethasone 17-valerate.

[2] = test system: thymus weight in rats; experiment: Thymus inhibition testing (subcutaneous administration)
Method in brief: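 Male Sprague-Dawley rats were dosed systemically. On the fifth day, 48 hours after the last treatment, animals were sacrificed and thymus weights recorded.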

[3] = test system: granulation tissue formation caused by implantation of cotton pellets; experiment: Granuloma formation test (local cotton pellet granuloma assay); conditions: for Body wt. gain / Granulation tissue Dry wt. / Granulation tissue Dry wt. Inhibition / Granulation tissue Wet wt. / Granulation tissue Wet wt. Inhibition / Thymus wt.: Table IV
Description: The test compound was dissolved in acetone and aliquots of varying concentrations were injected into cotton pellets. The pellets were dried and then one pellet was implanted beneath the skin of each test rat. Six days later, the animals were sacrificed and the granulation tissue (granuloma) which formed in and around the implanted pellet was removed, dried and weighed. In addition, the thymi and adrenals were removed and weighed.

[4] = Table VII, 1 mg/kg/day s.c., three days
[5] = Table VII, 3 mg/kg/day s.c., three days
[6] = Table VII, 10 mg/kg/day s.c., three days
[7] = Table VII, 30 mg/kg/day s.c., three days
[8] = Table VIII, 10 mg/kg/day s.c., three days
[9] = Table X, betamethasone 17-valerate = 1
[10] = chloromethyl 11β-hydroxy-17α-isopropoxycarbonyloxyandrost-4-en-3-one-17β-carboxylate = 1

Structure (SMILES): CCOC(=O)O[C@]1(C(=O)OCCl)[C@H](C)C[C@H]2[C@@H]3CCC4=CC(=O)C=C[C@]4(C)[C@@]3(F)[C@@H](O)C[C@@]21C [chloromethyl 17α-ethoxycarbonyloxy-9α-fluoro-11β-hydroxy-16α-methylandrosta-1,4-dien-3-one-17β-carboxylate]
- Body wt. gain ([1]; 1 mg/kg/day i.v.): 14.1 ± 1.4 g
- Dry granuloma wt. ([1]; 1 mg/kg/day i.v.): 50.1 ± 6.9 mg
- Dry granuloma wt. Inhibition ([1]; 1 mg/kg/day i.v.): 20.1%
- Thymus wt. ([1]; 1 mg/kg/day i.v.): 373 ± 25 mg
- Thymus wt. Decrease ([1]; 1 mg/kg/day i.v.): 11.6%
- Body wt. gain ([1]; 3 mg/kg/day i.v.): 14.2 ± 1.3 g
- Dry granuloma wt. ([1]; 3 mg/kg/day i.v.): 49.3 ± 5.1 mg
- Dry granuloma wt. Inhibition ([1]; 3 mg/kg/day i.v.): 21.4%
- Thymus wt. ([1]; 3 mg/kg/day i.v.): 338 ± 20 mg
- Thymus wt. Decrease ([1]; 3 mg/kg/day i.v.): 19.9%
- Body wt. gain ([1]; 10 mg/kg/day i.v.): 0.3 ± 1.7 g
- Dry granuloma wt. ([1]; 10 mg/kg/day i.v.): 45.7 ± 4.6 mg
- Dry granuloma wt. Inhibition ([1]; 10 mg/kg/day i.v.): 27.1%
- Thymus wt. ([1]; 10 mg/kg/day i.v.): 209 ± 31 mg
- Thymus wt. Decrease ([1]; 10 mg/kg/day i.v.): 50.5%
- Body wt. gain ([1]; 30 mg/kg/day i.v.): -18.5 ± 2.3 g
- Dry granuloma wt. ([1]; 30 mg/kg/day i.v.): 32.7 ± 3.0 mg
- Dry granuloma wt. Inhibition ([1]; 30 mg/kg/day i.v.): 47.8%
- Thymus wt. ([1]; 30 mg/kg/day i.v.): 71 ± 4 mg
- Thymus wt. Decrease ([1]; 30 mg/kg/day i.v.): 83.2%
- Body weight gain [2, 4]: 13.1 ± 1.0 g
- Thymus [2, 4]: 428 ± 20 mg
- Thymus Inhibition [2, 4]: 9.1%
- Body weight gain [2, 5]: 12.7 ± 1.4 g
- Thymus [2, 5]: 412 ± 20 mg
- Thymus Inhibition [2, 5]: 12.5%
- Body weight gain [2, 6]: 9.7 ± 1.3 g
- Thymus [2, 6]: 405 ± 21 mg
- Thymus Inhibition [2, 6]: 14.0%
- Body weight gain [2, 7]: 4.4 ± 0.7 g
- Thymus [2, 7]: 292 ± 15 mg
- Thymus Inhibition [2, 7]: 38.0%
- Body weight gain [2, 8]: 14.2 ± 1.9 g
- Thymus wt. [2, 8]: 533 ± 31 mg
- Thymus wt. Inhibition [2, 8]: 3.1%
- Relative Potency (TED40) [2, 9]: 0.0058
- Relative Potency (TED50) [2, 9]: <0.011
- TED40 ([2]; Table X, dose required to achieve 40% inhibition of thymi weight, subcutaneous): 51.5 mg
- TED50 ([2]; Table X, dose required to achieve 50% inhibition of thymi weight, subcutaneous): <51.5^a mg
- Relative Potency (TED40) ([2]; Table XII, hydrocortisone 17-butyrate = 1): 1/40
- TED40 ([2]; Table XII, thymus inhibition effect, subcutaneously): 51.5 mg/kg
- Body wt. gain ([3]; 0.3 μg/pellet): 32.4 ± 1.1 g
- Granulation tissue Dry wt. ([3]; 0.3 μg/pellet): 57.3 ± 5.0 mg
- Granulation tissue Dry wt. Inhibition ([3]; 0.3 μg/pellet): 29.4%
- Granulation tissue Wet wt. ([3]; 0.3 μg/pellet): 472 ± 23 mg
- Granulation tissue Wet wt. Inhibition ([3]; 0.3 μg/pellet): 16.6%
- Thymus wt. ([3]; 0.3 μg/pellet): 492 ± 26 mg
- Body wt. gain ([3]; 1 μg/pellet): 37.3 ± 1.5 g
- Granulation tissue Dry wt. ([3]; 1 μg/pellet): 36.4 ± 2.4 mg
- Granulation tissue Dry wt. Inhibition ([3]; 1 μg/pellet): 55.2%
- Granulation tissue Wet wt. ([3]; 1 μg/pellet): 388 ± 31 mg
- Granulation tissue Wet wt. Inhibition ([3]; 1 μg/pellet): 31.4%
- Thymus wt. ([3]; 1 μg/pellet): 519 ± 22 mg
- Body wt. gain ([3]; 3 μg/pellet): 34.3 ± 1.1 g
- Granulation tissue Dry wt. ([3]; 3 μg/pellet): 27.4 ± 2.9 mg
- Granulation tissue Dry wt. Inhibition ([3]; 3 μg/pellet): 66.3%
- Granulation tissue Wet wt. ([3]; 3 μg/pellet): 331 ± 11 mg
- Granulation tissue Wet wt. Inhibition ([3]; 3 μg/pellet): 41.5%
- Thymus wt. ([3]; 3 μg/pellet): 472 ± 16 mg
- Body wt. gain ([3]; 10 μg/pellet): 36.1 ± 1.1 g
- Granulation tissue Dry wt. ([3]; 10 μg/pellet): 22.1 ± 3.6 mg
- Granulation tissue Dry wt. Inhibition ([3]; 10 μg/pellet): 72.8%
- Granulation tissue Wet wt. ([3]; 10 μg/pellet): 313 ± 13 mg
- Granulation tissue Wet wt. Inhibition ([3]; 10 μg/pellet): 44.7%
- Thymus wt. ([3]; 10 μg/pellet): 521 ± 35 mg
- Body wt. gain ([3]; 30 μg/pellet): 31.3 ± 1.4 g
- Granulation tissue Dry wt. ([3]; 30 μg/pellet): 20.4 ± 2.4 mg
- Granulation tissue Dry wt. Inhibition ([3]; 30 μg/pellet): 74.9%
- Granulation tissue Wet wt. ([3]; 30 μg/pellet): 290 ± 10 mg
- Granulation tissue Wet wt. Inhibition ([3]; 30 μg/pellet): 48.8%
- Thymus wt. ([3]; 30 μg/pellet): 505 ± 26 mg
- ED50 ([3]; Table XII, anti-inflammatory effect in cotton pellet granuloma): 1.07 μg/pellet
- Relative potency (ED40) [3, 10]: 653
- Relative potency (ED60) [3, 10]: 283
- ED40 ([3]; dose causing 40% inhibition of granulation tissue weight): 0.47 μg/pellet
- ED50 ([3]; dose causing 50% inhibition of granulation tissue weight): 1.07 μg/pellet
- ED60 ([3]; dose causing 60% inhibition of granulation tissue weight): 2.44 μg/pellet
